This is an account of results in article PMC11602115 (Journal of Medicinal Chemistry, 2017).

Data set [1] in a line: Incubation in simulated gastric fluid. Format: physicochemical. The settings on record: room temperature, 3 h. The source says:
(§1) A taurine-conjugated metabolite was subsequently identified in bile (M1, Figure 4), which was also observed in circulating plasma, although at much lower concentrations (∼5%) compared to parent. Further, two oxidized products, one of which was also a taurine-conjugate, were identified (M2 and M3) in plasma. […] It is known that taurine can be conjugated to bile acids and these conjugates may be hydrolyzed in the gut which allows for bile acid reabsorbtion.[19]

The nature of data set [2]: Metabolite profile of 5c in the rat. Format: in vivo. To be noted: rat, after dosing of 5c.
Source text: as §1

Data set [3] has as its target T1, IP (Homo sapiens, UniProt P43119). Nature of the data set: HTRF cAMP assay, recombinant human IP receptor stably expressed in CHO-K1 cells. The data set is classed as cell-based. Details: expressed in transfected cells.
Data set [4] deals with T1, IP. Nature of the data set: Radioligand binding, human IP ([3H]-iloprost). The arrangement: expressed in transfected cells; host or cells: CHO-K1 (crude membranes). The settings on record: Figure 4; read-out: Ki hIP. The procedure: CHO-K1 cells expressing recombinant IP receptors were harvested, washed with ice-cold phosphate buffered saline, pH 7.4 (PBS), and then centrifuged at 48 000g for 20 min at 4 °C. The resulting cell pellet was then resuspended in ice-cold PBS containing 20 mM HEPES, pH 7.4, and 0.1 mM EDTA, homogenized on ice using a Brinkman Polytron, and centrifuged (48 000g for 20 min at 4 °C). This resuspension and centrifugation process was repeated one further time. Crude membrane pellets were stored at −80 °C until used for radioligand binding assays.
Assay incubations were terminated by rapid filtration through PerkinElmer GF/C filtration plates pretreated with 0.3% PEI, under vacuum pressure using a 96-well Packard filtration apparatus, followed by multiple washes with ice-cold wash buffer (PBS containing 20 mM HEPES and 0.1 mM EDTA, pH 7.4). Plates were then dried at 45 °C for a minimum of 2 h. Finally, 25 μL of BetaScint scintillation cocktail was added to each well and plates were counted in a Packard TopCount scintillation counter. In each competition study, test compounds were dosed at 10 concentrations with triplicate determinations at each test concentration.

The next data set has as its target T2, human DP1 receptor (Homo sapiens, UniProt Q13258).
T2 construct: expressed in transfected cells
T2 sequence (Q13258 1-359): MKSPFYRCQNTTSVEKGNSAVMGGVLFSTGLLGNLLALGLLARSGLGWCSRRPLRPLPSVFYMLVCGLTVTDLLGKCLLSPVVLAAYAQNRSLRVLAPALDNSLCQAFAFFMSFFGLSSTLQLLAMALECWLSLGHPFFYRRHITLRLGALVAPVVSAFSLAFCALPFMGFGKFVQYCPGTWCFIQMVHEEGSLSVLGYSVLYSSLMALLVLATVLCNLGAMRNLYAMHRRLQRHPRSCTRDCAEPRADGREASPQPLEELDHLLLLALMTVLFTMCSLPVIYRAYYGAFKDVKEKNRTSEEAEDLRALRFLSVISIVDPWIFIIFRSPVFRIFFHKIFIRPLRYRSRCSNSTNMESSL
The settings on record: earlier series; cited from earlier work.

As usually defined, the EC50 is the midpoint of the concentration-response curve. A word on the Ki: it is a dissociation constant, usually derived from enzyme kinetics or from competition with a known ligand.

T1 sequence (P43119 whole entry): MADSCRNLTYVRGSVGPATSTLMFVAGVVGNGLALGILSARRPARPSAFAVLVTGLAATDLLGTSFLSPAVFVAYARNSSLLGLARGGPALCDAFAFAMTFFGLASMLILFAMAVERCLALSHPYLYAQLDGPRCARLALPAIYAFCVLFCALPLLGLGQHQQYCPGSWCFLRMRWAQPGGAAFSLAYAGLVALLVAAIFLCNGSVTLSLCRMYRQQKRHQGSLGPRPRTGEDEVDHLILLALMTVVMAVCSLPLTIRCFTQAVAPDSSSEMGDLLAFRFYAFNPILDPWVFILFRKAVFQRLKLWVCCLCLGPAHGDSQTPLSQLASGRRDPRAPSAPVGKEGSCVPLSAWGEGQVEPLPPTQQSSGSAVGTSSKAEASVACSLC

As to `O=C(COC[C@H]1CC[C@H](COC(=O)N(c2ccccc2)c2ccc(Cl)cc2)CC1)NCCS(=O)(=O)O` [M1, 2-(2-(((1r,4r)-4-(((4-Chlorophenyl)(phenyl)carbamoyloxy)methyl)cyclohexyl)methoxy)acetamido)ethanesulfonic Acid], the “chemical degradation to the parent in simulated gastric fluid” value in data set [1] is “little chemical degradation”. The “concentration in circulating plasma compared to parent” value in data set [2] is listed as ~5%. Further, the Emax on IP [3] (CHO-K1, read-out: hIP % IA) came to 76%. In addition, the half-maximal effective concentration (EC50) on IP [3] (HTRF (cAMP) human IP receptor assay, mean of at least three determinations) amounted to 930 nM. The inhibition constant (Ki) on IP [4] was 400 nM.
Consider `O=C(O)COc1cccc2c1CC[C@H](Cn1ncc(-c3cccc(F)c3F)c(-c3ccc(F)cc3)c1=O)C2` [compound 3], for which, at human DP1 receptor, the “IP to DP1 selectivity ratio” value is on record as 8 fold.
